Drawing on paper PMC7692993 (Journal for Immunotherapy of Cancer, 2020), this text covers IC50 for one molecule.

Structures are written as SMILES.

Assay [1] addresses T1, CC chemokine receptor 4 (CCR4) (Mus musculus, UniProt P51680).
T1 sequence (P51680 1-360): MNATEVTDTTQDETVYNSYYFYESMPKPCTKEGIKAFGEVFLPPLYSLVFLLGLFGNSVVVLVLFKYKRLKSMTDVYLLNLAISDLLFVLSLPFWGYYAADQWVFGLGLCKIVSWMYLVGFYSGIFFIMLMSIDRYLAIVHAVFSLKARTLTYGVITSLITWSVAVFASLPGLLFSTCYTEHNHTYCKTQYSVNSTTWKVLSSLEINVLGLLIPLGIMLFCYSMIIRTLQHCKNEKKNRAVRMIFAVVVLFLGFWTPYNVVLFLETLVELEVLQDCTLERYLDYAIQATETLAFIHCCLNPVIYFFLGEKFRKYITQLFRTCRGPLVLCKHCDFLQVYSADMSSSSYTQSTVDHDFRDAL
As to the kind of experiment: inhibition of CCL22-driven chemotaxis of mouse iTreg in […] serum. The format is cell-based.

Assay [2] has as its target T2, CC chemokine receptor 4 (CCR4) (Homo sapiens, UniProt P51679).
T2 sequence (P51679 1-360): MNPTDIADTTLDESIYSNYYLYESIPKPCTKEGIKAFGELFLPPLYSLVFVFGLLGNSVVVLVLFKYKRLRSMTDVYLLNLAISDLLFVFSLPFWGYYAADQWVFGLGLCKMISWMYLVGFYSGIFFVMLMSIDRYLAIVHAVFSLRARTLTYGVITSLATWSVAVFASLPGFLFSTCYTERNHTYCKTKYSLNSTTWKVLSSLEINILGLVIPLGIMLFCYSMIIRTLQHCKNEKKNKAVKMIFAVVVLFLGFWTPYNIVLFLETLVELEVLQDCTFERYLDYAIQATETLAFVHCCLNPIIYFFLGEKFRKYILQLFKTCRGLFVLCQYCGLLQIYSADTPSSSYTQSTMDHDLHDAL
As to the kind of experiment: inhibition of CCL22-driven chemotaxis of human iTreg in […] serum. Format: cell-based.

Consider `C[C@H](c1ccc(Cl)cc1Cl)n1nc(C#N)c2ncc(N3CC([C@H]4CCCN(CCO)C4)C3)nc21` [CCR4-351], for which the IC50 in assay [1] and in assay [2] was approximately 0.04 µM throughout.
